# Experimental data reported in US11434227B2, “Broad spectrum antibacterial activity of novel bisbenzimidazoles targeting topoisomerase IA and the synergistic composition of bisbenzimidazole with efflux pump inhibitors against pathogenic bacteria” (Jawaharlal Nehru University (JNU), priority 2016, dated 2022).
# Key:
# [1] = molecular target: E. coli Topoisomerase IA (Escherichia coli, UniProt P06612); test: Topoisomerase IA cleavage and religation assay; type: biochemical; conditions: 0.12-2 μM DMA, 5′-32P labeled ssDNA
# Sequence of E. coli Topoisomerase IA (P06612 whole entry): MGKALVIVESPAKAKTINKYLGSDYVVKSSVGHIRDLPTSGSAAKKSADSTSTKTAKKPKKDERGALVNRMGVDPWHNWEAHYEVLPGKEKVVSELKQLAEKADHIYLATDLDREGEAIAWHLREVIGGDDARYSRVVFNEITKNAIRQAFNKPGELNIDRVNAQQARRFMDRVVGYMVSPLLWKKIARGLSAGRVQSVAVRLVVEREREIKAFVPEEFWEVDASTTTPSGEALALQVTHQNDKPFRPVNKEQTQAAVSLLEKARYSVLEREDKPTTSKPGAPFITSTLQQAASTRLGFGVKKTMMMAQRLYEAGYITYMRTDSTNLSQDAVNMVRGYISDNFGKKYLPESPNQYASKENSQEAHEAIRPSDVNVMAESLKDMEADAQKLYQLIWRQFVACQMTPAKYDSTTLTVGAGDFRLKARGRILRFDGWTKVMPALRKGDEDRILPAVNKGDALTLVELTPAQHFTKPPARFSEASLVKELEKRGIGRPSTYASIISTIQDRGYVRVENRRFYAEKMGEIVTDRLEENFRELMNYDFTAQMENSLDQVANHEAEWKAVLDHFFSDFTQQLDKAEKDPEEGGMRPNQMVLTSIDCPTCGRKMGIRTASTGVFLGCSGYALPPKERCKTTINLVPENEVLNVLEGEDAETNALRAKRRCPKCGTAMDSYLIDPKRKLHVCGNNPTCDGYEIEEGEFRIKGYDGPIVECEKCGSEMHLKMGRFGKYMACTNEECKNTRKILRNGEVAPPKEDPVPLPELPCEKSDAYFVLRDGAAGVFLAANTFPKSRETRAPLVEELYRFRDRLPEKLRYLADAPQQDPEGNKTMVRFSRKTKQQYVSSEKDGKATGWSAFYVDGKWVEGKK
# Protocol: Compounds at different concentrations were added to DNA cleavage reaction mixtures (20 μl) containing 50 mM TrisHCl, pH 7.5, 2 mM MgCl2 0.2 mM DTT, 0.5 mM EDTA, 30 μg/ml BSA, 25 μg/ml of pHOT1 having specific site for DNA, 40 units of E. coli Topoisomerase IA and ligands was incubated at 37° C. for 30 min. The reactions was then terminated by adding 1% SDS and 150 μg/m Proteinase K, and incubated further for 1 h at 37° C. The DNA samples was electrophoresed in 1% agarose gel in 0.5×TBE. Ethidium bromide at a finial concentration of 0.5 μg/ml was included in the gel to resolve slowly migrating nicked product (cleavable complex) from the supercoiled DNA molecules.
# [2] = molecular target: E. coli Topoisomerase IA (EcTopoIA) (Escherichia coli, UniProt P06612); conditions: reference 5; cited from earlier work
# Sequence of E. coli Topoisomerase IA (EcTopoIA) (P06612 whole entry): as above
# [3] = system: E. coli DH5α; test: Susceptibility (MIC, PAE, MBC), broth microdilution
# Protocol: (§1) MICs were determined by the broth microdilution method according to CLSI methods (Clinical and Laboratory Standards Institute, 2005). Inoculants were incubated at 37° C. on cation adjusted Mueller Hinton (MH) Broth for 18 to 24 h. Compound were dissolved in media to 10 doubling dilutions from 128 to 0.125 μg/mL. All the bacterial strains were grown in 96 well plate with low evaporation lid (Falcon, Becton Dickinson) in presence of derivatives of benzimidazoles at 0.125, 0.25, 0.5, 1, 2, 4, 8, 16, 32, 64, 128, 256 μg/mL concentrations. […] Plates were read by Tecan Micro-plate Reader at 600 nm.
# [4] = system: Escherichia coli (ATCC 25922); test: as above
# Protocol: as §1
# [5] = system: E. coli 72^R; test: as above; conditions: Escherichia coli
# [6] = system: E. coli 118^R; test: as above
# [7] = system: E. coli 85^R; test: as above
# Protocol: as §1
# [8] = system: E. coli 360^R; test: as above
# Protocol: as §1
# [9] = system: E. coli 451^R; test: as above
# Protocol: as §1
# [10] = system: E. coli 59^R; test: as above
# Protocol: as §1
# [11] = system: E. coli 81^R; test: as above
# Protocol: as §1
# [12] = system: E. coli 132^R; test: as above
# Protocol: as §1
# [13] = system: E. coli 151^R; test: as above
# Protocol: as §1
# [14] = system: E. coli 401^R; test: as above
# Protocol: as §1
# [15] = system: E. coli 555^R; test: as above
# Protocol: as §1
smiles,measurement,setting,value
"COc1ccc(-c2nc3cc(-c4nc5ccc(N6CCN(C)CC6)cc5[nH]4)ccc3[nH]2)cc1OC [DMA, 3,4-Dimethoxyphenyl bisbenzimidazole, reference compound]",DNA cleavage product formed by EcTopo1A,[1],increased the DNA cleavage product formed by EcTopo1A
same,target specificity,[2],"specific Escherichia coli Topoisomerase IA poison inhibitor over Gyrase, Human Topoisomerase I and Human Topoisomerase II"
same,PAE,[3]; E. coli DH5α,20.8 h
same,MBC,[3]; Escherichia coli,16 µM
same,MIC,[3]; Escherichia coli,3.74 µg/mL
same,PAE,[4]; ATCC 25922,22.3 h
same,MBC,"[4]; Escherichia coli, ATCC25922",64 µM
same,MIC,"[4]; Escherichia coli, ATCC25922",15 µg/mL
same,MBC,[5],16 µM
same,MIC,[5],3.74 µg/mL
same,PAE,[6]; E. coli 118^R,24 h
same,MBC,[6]; Escherichia coli,16 µM
same,MIC,[6]; Escherichia coli,3.74 µg/mL
same,PAE,[7]; E. coli 85^R,24 h
same,MBC,[7]; Escherichia coli,16 µM
same,MIC,[7]; Escherichia coli,3.74 µg/mL
same,PAE,[8]; E. coli 360^R,24 h
same,MBC,[8]; Escherichia coli,16 µM
same,MIC,[8]; Escherichia coli,3.74 µg/mL
same,PAE,[9]; E. coli 451^R,22 h
same,MBC,[9]; Escherichia coli,16 µM
same,MIC,[9]; Escherichia coli,3.74 µg/mL
same,PAE,[10]; E. coli 59^R,1.6 h
same,MBC,[10]; Escherichia coli,32 µM
same,MIC,[10]; Escherichia coli,7.49 µg/mL
same,PAE,[11]; E. coli 81^R,23.6 h
same,MBC,[11]; Escherichia coli,32 µM
same,MIC,[11]; Escherichia coli,7.49 µg/mL
same,PAE,[12]; E. coli 132^R,24 h
same,MBC,[12]; Escherichia coli,32 µM
same,MIC,[12]; Escherichia coli,7.49 µg/mL
same,PAE,[13]; E. coli 151^R,21.6 h
same,MBC,[13]; Escherichia coli,32 µM
same,MIC,[13]; Escherichia coli,7.49 µg/mL
same,PAE,[14]; E. coli 401^R,16 h
same,MBC,[14]; Escherichia coli,64 µM
same,MIC,[14]; Escherichia coli,15 µg/mL
same,PAE,[15]; E. coli 555^R,24 h
same,MBC,[15]; Escherichia coli,64 µM
same,MIC,[15]; Escherichia coli,15 µg/mL
